Assays:
HIV-1ROJO = experiment: Antiviral activity in infected PBMCs (reverse transcriptase in supernatant); format: cell-based
Method: (§1) The activity of the certain compounds of the invention was evaluated in peripheral blood mononuclear cells (PBMCs) infected with the low passage, clinical isolate HIV-1ROJO to generate a measure of the efficacy of these compounds in acutely infected cells. The use of these normal human cells allows an estimate of the therapeutic index of these compounds to be made. Fresh PBMCs from two donors were pooled and stimulated with PHA-P for 48-72 hours. The cells were then cultured in the presence of IL-2 to maintain the cell division initiated by the mitogenic signal. The virus was added at a multiplicity of infection of 0.1. The cells were cultured for 7 days post infection prior to the evaluation of efficacy. Viral replication was measured by the level of reverse transcriptase activity in the supernatant and cytotoxicity was measured with the MTS assay.

[1] = system: peripheral blood mononuclear cells (PBMCs); experiment: Cytotoxicity in PBMCs (MTS assay); format: cell-based, human; details: read-out: TC50 (μM): 50% cytoxicity (MTS), 7 days
Method: as §1

HCT-116 cells [2] = experiment: Cell cycle analysis with propidium iodide (FACS); format: cell-based, human; details: exposure 24, 48 and 72 hours
Method: The percentage of cells in the G1, S and G2/M phases of the cell cycle was determined by staining DNA with propidium iodide and quantifying the number of cells with a 2N or 4N DNA complement by flow cytometry. Alterations in the distribution of cells across the cell cycle in response to exposure to the Cdk inhibitors was evaluated in this manner.
3 sets of HCT-116 cells (100,000 cells/set) were cultured in the presence of a test compound in T-25 flasks according to Table 1 below. Analysis was performed at 24, 48 and 72 hours. Adherent cells were collected by trypsinization, combined with floating cells in Falcon 12×75 flow cytometric tubes, and harvested by centrifugation. The media was decanted from the cell pellet, 100 μl of PI stain was added and the cells were incubated at 37° C. for 20-25 minutes. The cell count was preferably no greater than 2×10^6-4×10^6/ml. An equal volume (100 μl) of PI salt was then added to the cells, which were then incubated at 4° C. for 1-2 hours. The stained cells were analyzed on a Becton Dickinson FACScan flow cytometer. Samples were protected from light.

HCT-116 cells [3] = experiment: Calcein AM viability assay, HCT-116; format: cell-based; details: Homo sapiens, non-protein adjusted, Table 6
Method: The potency of Cdk inhibitors, as measured by loss of cellular viability, was determined with the Calcein AM assay (Molecular Probes). Calcein AM is a substrate of intracellular esterases, which is cleaved only in viable cells to generate a fluorescent product that can be quantified with a fluorescent plate reader. The fluorescent signal is proportional to the number of viable cells, and thus loss of signal in response to the exposure of cells to Cdk inhibitors correlates with a loss of viability. This assay can distinguish cell cycle arrest, in which cells may still by viable, from loss of viability and is thus well suited for the evaluation of Cdk inhibitors. A compound that is a potent cytotoxic, may cause significant loss of cell viability in such assay.
Cellular IC50's were determined in the human colorectal carcinoma cell line, HCT-116, and the normal human fibroblast, IMR90. Protein adjusted IC50's were also determined in HCT-116.
HCT-116 or IMR90 cells were recovered from sub-confluent plates by trypsinization and 1,000 or 4,000 cells, respectively, were plated in 24-well dishes and incubated overnight at 37° C., 5% CO2. […]
A 5 μM Calcein AM solution was prepared by dissolving a 50 μg aliquot of Calcein (Molecular Probes catalog #C3100) in 50 μl DMSO. […] (protected from light) and the fluorescent signal was read on a fluorescent plate reader (excitation 485/20 and emission 530/25).

HCT-116 cells [4] = experiment: Clonogenic survival assay with HCT-116 cells; format: cell-based, human; details: at 100 nM, time-course (FIG. 3)
Method: This assay was used to determine the concentration of a compound that results irreversible loss of viability after a specified period of exposure. Essentially, cells are exposed to compound for a period of 1, 2 or 5 days, and are then transferred to compound-free growth medium. After continued incubation in the compound-free medium for a number of days, the number of colonies recovered is counted as an estimate of the number of surviving cells.
Media (RPMI-1640, 10% FCS, pen/strep) was pre-warmed to 37° C. in a water bath. Cells were incubated and grown at 37° C., 5% CO2. Cells were recovered by trypsinization from sub-confluent plates and counted using a hemocytometer. 1×10^4 cells were plated in 25 mls of media in a 15 cm tissue culture dish. 14 plates were set up for each test compound, and were incubated overnight at 37° C. The compound was diluted into media at 7 concentrations and the media on the cells was replaced with that containing the test compound. Two plates were set up for each concentration of the compound to be tested, as well as two control plates without compound. […] Colonies were stained with crystal violet solution (0.4% crystal violet, 20% ethanol) for 5 minutes, washed twice with distilled water, and counted.

Row | SMILES | TI: TC50/IC50 (HIV-1ROJO) | further results
1 | Cc1cn([C@H]2C[C@H](N=[N+]=[N-])[C@@H](CO)O2)c(=O)[nH]c1=O [AZT, reference compound] | >100 | CC50 [1]: > 1 µM
2 | CC(C)c1nn(-c2c(Cl)cccc2Cl)c2nc(Cc3ccc(OCCN4CCOCC4)c(O)c3)[nH]c(=O)c12 [Compound A32] | >10 | –
3 | CC(C)N1CCN(C(=O)COc2ccc(-c3[nH]nc4c3C(=O)c3c(NC(=O)NN5CCOCC5)cccc3-4)cc2)CC1.Cl [Compound A37] | – | effect on cell cycle distribution (PI FACS) (HCT-116 cells [2]): terminally arrested in G1 and G2, with evidence of apoptosis and endo-reduplication
4 | CC(C)c1nn(-c2c(Cl)cc(Cl)cc2Cl)c2nc(Cc3ccc(OCCO)cc3)[nH]c(=O)c12 [Compound A61] | >10 | –
5 | CC(C)c1nn(-c2c(Cl)cc(Cl)cc2Cl)c2nc(Cc3ccc(OCC(C)(C)O)cc3)[nH]c(=O)c12 [Compound A64] | >10 | –
6 | O=C(Nc1cccc2c1C(=O)c1c(-c3ccc(CN4CCCC4CO)cc3)n[nH]c1-2)NN1CCOCC1 (centres unmarked) [Compound B6] | – | IC50 (HCT-116 cells [3]): < 0.1 µM
7 | COCCN1CCN(Cc2ccc(-c3[nH]nc4c3C(=O)c3c(NC(=O)NN5CCOCC5)cccc3-4)cc2)CC1.Cl.Cl [Compound B16] | – | time within which IC50 reached (HCT-116 cells [4]): 30 to 60 min; effect on cell cycle distribution (PI FACS) (HCT-116 cells [2]): Analogous results
8 | CC(C)c1nn(-c2c(Cl)cccc2Cl)c2nc(Cc3ccc(CN4CCCC4)c(O)c3)[nH]c(=O)c12.Cl [Compound C3] | >10 | –
9 | CC(C)c1nn(-c2c(Cl)cc(Cl)cc2Cl)c2nc(Cc3ccc(CNC(CO)CO)n3C)[nH]c(=O)c12.Cl [Compound C4] | >1 | –

— patent publication US8097619B2, “Inhibitors of cyclin-dependent kinases, compositions and uses related thereto” (Agennix USA Inc., priority 2003, dated 2012)
